Test results: PubChem BioAssay (NCI)
Where “and” joins values, the source holds several entries; their conditions need not be identical. Equal entries are not always repeated.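 Tested at 5 concentrations; 48 h exposure; 96-well plates; endpoints linearly interpolated, else capped at highest concentration. GI50: concentration for 50% inhibition of growth. TGI denotes the concentration required for complete inhibition of growth.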

How the values were obtained:
Assay in all cases: growth of human tumour cells (NCI), 48 h
[1] = system: SR leukemia
[2] = system: HL-60(TB) leukemia
[3] = system: OVCAR-3 ovarian
[4] = system: LOX IMVI melanoma
[5] = system: TK-10 renal
[6] = system: COLO 205 colon
[7] = system: MDA-MB-231 breast
[8] = system: CCRF-CEM leukemia
[9] = system: RPMI-8226 leukemia
[10] = system: HOP-92 NSCLC
[11] = system: SNB-75 CNS

SMILES: CSc1nc(C#N)c(N)n1C
- TGI [1]: > 100 µM
- TGI [2]: > 100 µM
- TGI [3]: > 100 µM
- TGI [4]: > 100 µM
- TGI [5]: > 100 µM
- TGI [6]: > 100 µM
- TGI [7]: > 100 µM
- TGI [8]: > 100 µM
- TGI [9]: > 100 µM
- TGI [10]: > 100 µM

SMILES: O=C(N/N=C/c1ccc(Cl)cc1)c1cc(I)cc(I)c1O
- TGI [1]: > 100 µM
- TGI [2]: > 100 µM
- TGI [3]: > 100 µM
- TGI [4]: > 100 µM
- TGI [5]: > 100 µM
- TGI [6]: > 100 µM
- TGI [7]: > 100 µM
- TGI [8]: > 100 µM
- TGI [9]: > 100 µM
- TGI [11]: > 100 µM
- TGI [10]: > 100 µM

SMILES: Cc1nn(C(=O)c2ccncc2)c2c1C(c1cccc([N+](=O)[O-])c1)SC(N)=N2 (stereo unspecified)
- TGI [1]: > 10 µM
- TGI [2]: > 10 µM
- TGI [3]: > 10 µM
- TGI [4]: > 10 µM
- TGI [5]: > 10 µM
- TGI [6]: > 10 µM
- TGI [7]: > 10 µM
- TGI [8]: > 10 µM
- TGI [9]: > 10 µM
- TGI [11]: > 10 µM
- TGI [10]: > 10 µM

SMILES: COC1=CC(=O)c2c(O)c3c(c(O)c2C1=O)C[C@](C)(O)C[C@@H]3O
- TGI [1]: 12.1 µM
- TGI [2]: 7.91 µM
- TGI [3]: 5.29 µM
- TGI [4]: 10.1 µM
- TGI [5]: 64.3 µM
- TGI [6]: 4.96 µM
- TGI [7]: 28.3 µM
- TGI [8]: 33.9 µM
- TGI [9]: 40.2 µM
- TGI [11]: 28 µM
- TGI [10]: 22.6 µM

SMILES: Cc1ccc(OCC2OC(n3cnc4c(Cl)ncnc43)CC2Oc2ccc(C)cc2)cc1 (stereo unspecified)
- TGI [1]: > 22.7 µM
- GI50 [2]: 2.79 µM
- TGI [2]: 7.17 µM
- GI50 [3]: 3.16 µM and 8.9 µM
- TGI [3]: 9.72 µM and 27.7 µM
- GI50 [4]: 2.41 µM and 15 µM
- TGI [4]: 10.8 µM and > 45.9 µM
- TGI [5]: > 100 µM
- GI50 [6]: 6.45 µM and 20.8 µM
- TGI [6]: 19.4 µM and 74.4 µM
- TGI [7]: 17.8 µM and 30.6 µM
- TGI [8]: > 40 µM
- GI50 [9]: 3.03 µM
- TGI [9]: > 25 µM and 22.5 µM
- TGI [11]: 34.3 µM and > 68.7 µM
- GI50 [10]: 5.22 µM and 2.22 µM
- TGI [10]: 24.2 µM and 5.57 µM

SMILES: CN(CCc1ccc(Cl)c(Cl)c1)CCN(C)CCN1CCCC1
- TGI [1]: 17.2 µM
- TGI [2]: 31.7 µM
- TGI [3]: 70.4 µM
- TGI [4]: 20.1 µM
- TGI [5]: 26.7 µM
- TGI [6]: 5.3 µM
- TGI [7]: 23 µM
- TGI [8]: 14.6 µM
- TGI [9]: 8.97 µM
- TGI [11]: 31.5 µM
- TGI [10]: 16 µM

SMILES: Oc1ccc(Cl)cc1C1=N/C(=N\C/N=C2\N=C(c3cc(Cl)ccc3O)CC(c3ccccc3)N2)NC(c2ccccc2)C1 (stereo unspecified)
- TGI [1]: > 100 µM
- TGI [2]: > 100 µM
- TGI [3]: > 100 µM
- TGI [4]: > 100 µM
- TGI [5]: > 100 µM
- TGI [6]: > 100 µM
- TGI [7]: > 100 µM
- TGI [8]: > 100 µM
- TGI [9]: > 100 µM
- TGI [11]: > 100 µM
- TGI [10]: > 100 µM

SMILES: N=C(N)SCCCN
- TGI [1]: 23.5 µM
- TGI [2]: 7.75 µM
- TGI [3]: 30.5 µM
- TGI [4]: 13.6 µM
- TGI [5]: 20.7 µM
- TGI [6]: 29.5 µM
- TGI [7]: 12.1 µM
- TGI [8]: 9.2 µM
- TGI [9]: > 68.9 µM
- TGI [11]: > 100 µM
- TGI [10]: > 40.6 µM

SMILES: COc1nc(OC)nc(-c2cccc(F)c2)n1
- TGI [1]: 17.5 µM
- TGI [2]: > 100 µM
- TGI [3]: 27.7 µM
- TGI [4]: 43.7 µM
- TGI [5]: 33.1 µM
- TGI [6]: 37.8 µM
- TGI [7]: 30 µM
- TGI [8]: > 100 µM
- TGI [9]: 45.3 µM
- TGI [11]: 44.4 µM
- TGI [10]: 38.8 µM

SMILES: CC1(C)CCCCCCCCCC(C)(CCCCCCCCCCCCO)C1=O (stereo unspecified)
- TGI [1]: > 100 µM
- TGI [2]: 38.3 µM
- TGI [3]: 29.4 µM
- TGI [4]: 32.3 µM
- TGI [5]: 31.6 µM
- TGI [6]: 62.7 µM
- TGI [7]: 29.9 µM
- TGI [8]: 50.7 µM
- TGI [9]: 42.2 µM
- TGI [11]: 29.7 µM
- TGI [10]: 31.7 µM

SMILES: COc1cc(C(c2cccc3ccccc23)N2C(=O)CCC2C(=O)NCc2ccccc2)cc(OC)c1OC (stereo unspecified)
- TGI [1]: > 100 µM
- TGI [2]: > 100 µM
- TGI [3]: > 100 µM
- TGI [4]: > 100 µM
- TGI [6]: > 100 µM
- TGI [7]: > 100 µM
- TGI [8]: > 100 µM
- TGI [9]: > 100 µM
- TGI [10]: > 100 µM

SMILES: CCN1CCCC(Nc2cc(C)nc(/N=C(/N)Nc3ccc(Cl)c(Cl)c3)n2)C1 (stereo unspecified)
- TGI [1]: 2.88 µM
- TGI [2]: 1.33 µM
- TGI [3]: 3.59 µM
- TGI [5]: 3.22 µM
- TGI [6]: 2.95 µM
- TGI [7]: 3.84 µM
- TGI [8]: 2.4 µM
- TGI [9]: 2.3 µM
- TGI [11]: 2.71 µM
- TGI [10]: 3.33 µM

SMILES: COC(=O)/C=C/c1cc(OC)c2oc(-c3ccc(OC)c(OC)c3)c(C(=O)OC)c2c1
- TGI [1]: > 100 µM
- TGI [2]: > 100 µM
- TGI [3]: > 100 µM
- TGI [4]: > 100 µM
- TGI [5]: > 100 µM
- TGI [6]: > 100 µM
- TGI [7]: > 100 µM
- TGI [8]: > 100 µM
- TGI [9]: > 100 µM
- TGI [10]: > 100 µM

SMILES: CC(=O)c1ccc(N2CCN(C3=CC(=O)c4c(O)ccc(O)c4C3=O)CC2)cc1
- TGI [1]: > 100 µM
- TGI [2]: 38.6 µM
- TGI [3]: > 100 µM
- TGI [5]: > 100 µM
- TGI [6]: > 100 µM
- TGI [7]: 94.8 µM
- TGI [8]: > 100 µM
- TGI [9]: > 100 µM
- TGI [11]: 61.7 µM
- TGI [10]: 79.2 µM

SMILES: CC1C2CC(C/C2=N/O)C1(C)C (stereo unspecified)
- TGI [1]: > 100 µM
- TGI [2]: > 100 µM
- TGI [3]: > 100 µM
- TGI [5]: > 100 µM
- TGI [6]: > 100 µM
- TGI [7]: > 100 µM
- TGI [8]: > 100 µM
- TGI [11]: > 100 µM
- TGI [10]: > 100 µM

SMILES: Cc1cc(O)ccc1C1(c2ccc(F)cc2)OC(=O)c2ccccc21 (stereo unspecified)
- TGI [1]: > 76.8 µM
- TGI [2]: > 72.2 µM
- TGI [3]: 0.882 µM
- TGI [4]: 6.65 µM
- TGI [5]: 15.5 µM
- TGI [6]: 11.2 µM
- TGI [7]: 26.3 µM
- TGI [8]: > 95.5 µM
- TGI [9]: > 62.1 µM
- TGI [11]: 8.01 µM
- TGI [10]: 12.5 µM

SMILES: Cc1cc(S(=O)(=O)Nc2nc3ccccc3n2-c2ccccc2)c(S)cc1Cl
- TGI [1]: > 100 µM
- TGI [2]: > 100 µM
- TGI [3]: > 100 µM
- TGI [4]: > 100 µM
- TGI [6]: > 100 µM
- TGI [7]: > 100 µM
- TGI [8]: > 100 µM
- TGI [9]: > 100 µM
- TGI [11]: > 100 µM
- TGI [10]: > 100 µM

SMILES: CCOC(=O)c1c(NCc2ccccc2)n(-c2ccccc2)c(=S)n(-c2ccccc2)c1=O
- TGI [1]: > 100 µM
- TGI [2]: > 100 µM
- TGI [3]: > 100 µM
- TGI [4]: > 100 µM
- TGI [5]: > 100 µM
- TGI [6]: > 100 µM
- TGI [7]: > 100 µM
- TGI [8]: > 100 µM
- TGI [9]: > 100 µM
- TGI [11]: > 100 µM
- TGI [10]: > 100 µM

SMILES: c1csc(-c2csc(-c3ccsc3)c2)c1
- TGI [1]: > 100 µM
- TGI [2]: > 100 µM
- TGI [3]: > 100 µM
- TGI [4]: > 100 µM
- TGI [5]: > 100 µM
- TGI [6]: > 100 µM
- TGI [7]: > 100 µM
- TGI [8]: > 100 µM
- TGI [9]: > 100 µM
- TGI [11]: > 100 µM
- TGI [10]: > 100 µM

SMILES: COP(=O)(OC)C(NC=O)P(=O)(OC)OC
- TGI [1]: > 100 µM
- TGI [2]: > 100 µM
- TGI [3]: > 100 µM
- TGI [4]: > 100 µM
- TGI [5]: > 100 µM
- TGI [6]: > 100 µM
- TGI [7]: > 100 µM
- TGI [8]: > 100 µM
- TGI [9]: > 100 µM
- TGI [10]: > 100 µM
